Reference: ChEMBL document CHEMBL1123414, “Neurochemistry of aging. 1. Toxins for an animal model of Alzheimer's disease” (J Med Chem, 1986)

Legend:
[1] = molecular target: T1, High affinity choline transporter 1 (Mus musculus, UniProt Q8BGY9); experiment: In vitro ability to inhibit the transport of [3H]choline in to high affinity choline transport system HAChT
T1 sequence (Q8BGY9 whole entry): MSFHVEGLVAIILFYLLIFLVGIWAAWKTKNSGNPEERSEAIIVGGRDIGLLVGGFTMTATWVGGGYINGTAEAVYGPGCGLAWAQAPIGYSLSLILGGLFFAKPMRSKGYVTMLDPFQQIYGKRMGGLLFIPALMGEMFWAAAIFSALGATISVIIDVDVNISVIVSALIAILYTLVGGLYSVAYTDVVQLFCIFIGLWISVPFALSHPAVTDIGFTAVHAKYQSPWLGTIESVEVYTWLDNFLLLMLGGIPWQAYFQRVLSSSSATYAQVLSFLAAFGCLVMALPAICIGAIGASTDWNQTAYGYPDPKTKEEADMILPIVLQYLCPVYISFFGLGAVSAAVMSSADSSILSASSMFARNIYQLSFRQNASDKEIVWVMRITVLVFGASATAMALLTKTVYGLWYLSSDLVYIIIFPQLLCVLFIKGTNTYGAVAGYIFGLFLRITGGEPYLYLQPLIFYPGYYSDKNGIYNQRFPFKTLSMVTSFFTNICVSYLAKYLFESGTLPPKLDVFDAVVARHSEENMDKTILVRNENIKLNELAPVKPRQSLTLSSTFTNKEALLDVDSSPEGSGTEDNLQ

[2] = molecular target: Muscarinic acetylcholine receptor M3 (Rattus norvegicus) (UniProt P08483); experiment: Compound was tested in vitro for its ability to displace [3H]-QNB from brain Muscarinic acetylcholine receptor
Chain of Muscarinic acetylcholine receptor M3 (Rattus norvegicus) (P08483 whole entry, looked up): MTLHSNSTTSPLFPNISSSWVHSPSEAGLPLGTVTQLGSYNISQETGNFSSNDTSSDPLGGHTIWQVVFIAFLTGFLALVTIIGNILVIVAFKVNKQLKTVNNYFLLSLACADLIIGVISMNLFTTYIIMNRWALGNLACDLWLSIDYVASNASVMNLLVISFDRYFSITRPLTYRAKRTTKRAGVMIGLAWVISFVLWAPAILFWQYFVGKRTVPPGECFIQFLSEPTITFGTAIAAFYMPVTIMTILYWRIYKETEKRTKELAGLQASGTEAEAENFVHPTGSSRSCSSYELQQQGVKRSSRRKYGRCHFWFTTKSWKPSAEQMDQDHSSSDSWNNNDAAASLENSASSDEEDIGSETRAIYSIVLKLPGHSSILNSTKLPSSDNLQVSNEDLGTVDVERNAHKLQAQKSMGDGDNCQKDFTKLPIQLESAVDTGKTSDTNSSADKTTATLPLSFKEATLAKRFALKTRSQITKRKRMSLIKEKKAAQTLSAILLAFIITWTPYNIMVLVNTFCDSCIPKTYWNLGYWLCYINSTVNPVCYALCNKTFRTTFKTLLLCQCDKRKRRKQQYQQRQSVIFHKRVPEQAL

Structure (SMILES) | IC50 [1] | Displacement [2]
C[N+](C)(C)CCO [CHOLINE] | 1.6 µM | 
CC[N+]1(CCO)CC1 | 1.5 µM | 18%
CC(C)C[N+]1(CCO)CC1 | 31 µM | 6%
CCC[N+]1(CCO)CC1 | 7.5 µM | 16%
CCCC[N+]1(CCO)CC1 | > 1000 µM | 9%
